From patent publication EP0421935B1, “Insect neuropeptides” (Novartis AG, priority 1989, dated 1999)
Bridge positions count the residues as written; N and C are the ends. Square brackets hold non-standard residues; d marks the D form. Peptide text beside a SMILES is read from it. pGlu = O=C1CC[C@@H](C(=O)O)N1

System: corpora allata which have been surgically removed from newly molted 5 stadium Manduca sexta larvae
Assay: in vitro JH biosynthesis assay (rate of [14C]JH biosynthesis by excised CC/CA complex)
Format: cell-based
Experimental: The biological activity of native LAS and LASA's is tested in an in vitro JH-biosynthesis assay using newly molted 5th stadium Manduca sexta larval CC/CA complex. The biological activity of each of the LAS and LASA preparations made according to the following examples is assayed according to a procedure essentially as described (except for media employed) by Pratt and Tobe, 1974 Life Sci vl4:575-586, which is incorporated by reference. This procedure measures the rate of biosynthesis of Juvenile Hormone (JH) by the corpora allata which have been surgically removed from newly molted 5 stadium Manduca sexta larvae. One corpus cardiacum-corpus allatum complex is maintained in 100 µl of TC-199 medium (components of which are shown below) and Hank's salts, and is shaken using a mechanical shaker. The sample to be tested for LAS-like activity is dried and dissolved in TC-199 medium. Then an equal volume of TC-199 medium containing [^14C] methionine is added, and allowed to incubate for 4 hours. […] is extracted from the medium using iso-octane and the extract is assayed by liquid scintillation counting. The rate of biosynthesis by glands exposed to the sample is compared to the rate observed for control glands. The presence of LAS or LASA causes a decrease in the rate of biosynthesis.

Row | SMILES | allatostatin activity in bioassay (crude oxidized synthetic peptide, before reversed phase LC purification) | level of activity (amidated carboxy terminus compared with Native LAS with free carboxy terminus, the test is not given)
1 | CC[C@H](C)[C@@H]1NC(=O)[C@@H]2CCCN2C(=O)[C@H](CC(N)=O)NC(=O)[C@H](Cc2ccccc2)NC(=O)[C@H](Cc2ccc(O)cc2)NC(=O)[C@@H](NC(=O)[C@H](CCC(N)=O)NC(=O)[C@H](CCCNC(=N)N)NC(=O)[C@H](Cc2ccccc2)NC(=O)[C@H](CCCNC(=N)N)NC(=O)[C@@H](NC(=O)[C@@H]2CCC(=O)N2)C(C)C)CSSC[C@@H](C(=O)N[C@@H](Cc2ccccc2)C(=O)O)NC(=O)[C@H](CO)NC1=O [LAS, pGlu-Val-Arg-Phe-Arg-Gln-Cys-Tyr-Phe-Asn-Pro-Ile-Ser-Cys-Phe-OH] ([pGlu]VRFRQCYFNPISCF-OH; disulfide 7-14) | exhibits allatostatin activity | –
2 | CC[C@H](C)[C@@H]1NC(=O)[C@@H]2CCCN2C(=O)[C@H](CC(N)=O)NC(=O)[C@H](Cc2ccccc2)NC(=O)[C@H](Cc2ccc(O)cc2)NC(=O)[C@@H](NC(=O)[C@H](CCC(N)=O)NC(=O)[C@H](CCCNC(=N)N)NC(=O)[C@H](Cc2ccccc2)NC(=O)[C@H](CCCNC(=N)N)NC(=O)[C@@H](NC(=O)[C@@H]2CCC(=O)N2)C(C)C)CSSC[C@@H](C(=O)N[C@@H](Cc2ccccc2)C(N)=O)NC(=O)[C@H](CO)NC1=O [amidated form] ([pGlu]VRFRQCYFNPISCF-NH2; disulfide 7-14) | – | same level of activity
